Measured values taken from patent publication US9682976B2, “Protein kinase C inhibitors and uses thereof” (Rigel Pharmaceuticals, Inc., priority 2012, dated 2017).

Test system: PKC mediated IL-2 production
Assay: IL-2 ELISA, human primary T cell, anti CD3+CD28+
Type: cell-based
Conditions: Homo sapiens, T-cell, 24 h, human primary T cells stimulated with αCD3 and αCD28, 24 hours
Description: Compounds 1-328 were tested in a whole cell functional assay for PKC mediated IL-2 production as follows. Human primary T cell isolation and culture: Human primary T cells were prepared as follows. Whole blood was obtained from a healthy volunteer, mixed 1:1 with PBS, layered on to Ficoll Hypaque (Amersham Pharmacia Biotech, Piscataway, N.J., Catalog #17-1440-03) in 2:1 blood/PBS:ficoll ratio and centrifuged for 30 minutes at 4° C. at 1750 rpm. The cells at the serum: ficoll interface were recovered and washed twice with 5 volumes of PBS. These freshly isolated human peripheral blood mononuclear cells were cultured in Yssel's medium containing 40 U/ml IL2 in a flask pre-coated with […] αCD3 and 5 μg/ml αCD28 (Anti-Human CD3, BD Pharmingen Catalog #555336, Anti-Human CD28, Beckman Coulter Catalog #IM1376). The cells were stimulated for 3-4 days, then transferred to a fresh flask and maintained in RPMI (RPMI-1640 with L-Glutamine; Mediatech, Inc., Herndon Va., cat. #10-040-CM) with 10% FBS and 40 U/ml IL-2. The primary T-cells were then washed twice with PBS to remove the IL-2.
Primary T cell stimulation and IL2 ELISA: Human primary T cells (100,000 cells per well) were pre-incubated with or without test compound in Yssel's medium for 1 hour at 37° C. Cells were then stimulated by transferring them to round-bottom 96-well plates pre-coated with […] αCD3 and 5 μg/ml αCD28. For counter assay, cells were instead stimulated by adding 8× stock solutions of PMA and ionomycin in Yssels (for final concentrations of 0.5 ng/ml PMA and 0.1 uM ionomycin, both from Calbiochem). Cells were incubated at 37° C. for 24 hours before 100 μL supernatants were harvested for quantification of IL-2 by ELISA using Human IL-2 Duoset ELISA Kit from R and D Systems, Cat. # DY202E.

SMILES	EC50
Fc1cc(C2CC2)c(-n2cnnn2)cc1Nc1ncc(F)c(NC2CCN3CCCC3C2)n1 (racemic) [Compound 24, (±)-N^2-(4-cyclopropyl-2-fluoro-5-(1H-tetrazol-1-yl)phenyl)-5-fluoro-n^4-(octahydroindolizin-7-yl)pyrimidine-2,4-diamine]	0.1 to 0.5 µM
Cn1nnn(-c2cc(Nc3ncc(F)c(NC4CCN5C(CCC5(C)C)C4)n3)c(F)cc2C2CC2)c1=O (racemic) [Compound 26, 1-(5-(5-fluoro-4-(octahydro-3,3-dimethylindolizin-7-ylamino)pyrimidin-2-ylamino)-2-cyclopropyl-4-fluorophenyl)-4-methyl-1H-tetrazol-5(4H)-one]	1 to 10 µM
Cn1nnn(-c2cc(Nc3ncc(F)c(NC4CCN5CCCC5C4)n3)c(F)cc2C2CC2)c1=O (racemic) [Compound 27, (±)-1-(5-(5-fluoro-4-(octahydroindolizin-7-ylamino)pyrimidin-2-ylamino)-2-cyclopropyl-4-fluorophenyl)-4-methyl-1H-tetrazol-5(4H)one]	1 to 10 µM

Other lines, results leading:

EC50	SMILES
1 to 10 µM	Cn1nnn(-c2cc(Nc3ncc(F)c(N[C@@H]4C[C@@H]5CCC(=O)N5C(C)(C)C4)n3)c(F)cc2C2CC2)c1=O (racemic) [Compound 31, 1-(5-(5-fluoro-4-(hexahydro-5,5-dimethylindolizin-3(5H)-one-7-ylamino)pyrimidin-2-ylamino)-2-cyclopropyl-4-fluorophenyl)-4-methyl-1H-tetrazol-5(4H)-one]
1 to 10 µM	Cn1nnn(-c2cc(Nc3ncc(F)c(N[C@H]4C[C@@H]5CCC(=O)N5C(C)(C)C4)n3)c(F)cc2C2CC2)c1=O (racemic) [Compound 32, 1-(5-(5-fluoro-4-(hexahydro-5,5-dimethylindolizin-3(5H)-one-7-ylamino)pyrimidin-2-ylamino)-2-cyclopropyl-4-fluorophenyl)-4-methyl-1H-tetrazol-5(4H)-one]
0.1 to 0.5 µM	Cn1nnn(-c2cc(Nc3ncc(F)c(NC4CC5CCCN5C(C)(C)C4)n3)ccc2OC2COC2)c1=O (racemic) [Compound 38, 1-(5-(5-fluoro-4-(octahydro-5,5-dimethylindolizin-7-ylamino)pyrimidin-2-ylamino)-2-(oxetan-3-yloxy)phenyl)-4-methyl-1H-tetrazol-5(4H)-one]
< 0.1 µM	CC1(C)C[C@H](Nc2nc(Nc3cc(-n4cnnn4)c(C4CC4)cc3F)ncc2F)C[C@@H]2CCCN21 (racemic) [Compound 53, (±)-N^2-(4-cyclopropyl-2-fluoro-5-(1H-tetrazol-1-yl)phenyl)-5-fluoro-n^4-(octahydro-5,5-dimethylindolizin-7-yl)pyrimidine-2,4-diamine]
0.1 to 0.5 µM	CC1(C)CC(Nc2nc(Nc3ccc(O[C@@H]4CCOC4)c(C#N)c3)ncc2F)CC2CCCN21 (mixture of isomers) [Compound 57, 2-((R)-tetrahydrofuran-3-yloxy)-5-(5-fluoro-4-(octahydro-5,5-dimethylindolizin-7-ylamino)pyrimidin-2-ylamino)benzonitrile]
0.1 to 0.5 µM	CC1(C)CC(Nc2nc(Nc3ccc(O[C@H]4CCOC4)c(C#N)c3)ncc2F)CC2CCCN21 (mixture of isomers) [Compound 60, 2-((S)-tetrahydrofuran-3-yloxy)-5-(5-fluoro-4-(octahydro-5,5-dimethylindolizin-7-ylamino)pyrimidin-2-ylamino)benzonitrile]
< 0.1 µM	Cn1nnn(-c2cc(Nc3ncc(C#N)c(N[C@@H]4C[C@@H]5CCCN5C(C)(C)C4)n3)c(F)cc2C2CC2)c1=O (racemic) [Compound 66, 4-((R/S,S/R)-Octahydro-5,5-dimethylindolizin-7-ylamino)-2-(4-cyclopropyl-2-fluoro-5-(4,5-dihydro-4-methyl-5-oxotetrazol-yl)phenylamino) pyrimidine-5-carbonitrile]
1 to 10 µM	Cn1nnn(-c2cc(Nc3ncc(F)c(NC4CCN5C(CCC5(C)C)C4)n3)c(F)cc2C2CC2)c1=O (single isomer, unassigned) [Compound 34, 1-(5-(5-fluoro-4-(octahydro-3,3-dimethylindolizin-7-ylamino)pyrimidin-2-ylamino)-2-cyclopropyl-4-fluorophenyl)-4-methyl-1H-tetrazol-5(4H)-one]

Same assay, conditions: human primary T cells stimulated with αCD3 and αCD28, 24 hours

SMILES	EC50
Cn1nnn(-c2cc(Nc3ncc(F)c(N[C@@H]4CCN5C(CCC5(C)C)C4)n3)c(F)cc2C2CC2)c1=O (mixture of isomers) [Compound 25]	1 to 10 µM
CC1(C)Oc2ccc(Nc3ncc(F)c(N[C@H]4C[C@@H]5CCCN5C(C)(C)C4)n3)cc2-n2nnnc21 (single isomer, unassigned) [Compound 3, N2-(4,4-dimethyl-4H-benzo[b]tetrazolo[1,5-d][1,4]oxazin-8-yl)-5-fluoro-N4-(octahydro-5,5-dimethylindolizin-7-amine)pyrimidine-2,4-diamine]	0.5 to 1 µM
CC(C)N1CCC(Oc2ccc(Nc3ncc(F)c(N[C@H]4C[C@H]5CCCN5C(C)(C)C4)n3)cc2OC(F)F)CC1 (single isomer, unassigned) [Compound 7, (R/S, S/R, R/R, S/S)-N^2-(4-(1-isopropylpiperidin-4-yloxy)-3-(difluoromethoxy)phenyl)-5-fluoro-N^4-(octahydro-5,5-dimethylindolizin-7-yl)pyrimidine-2,4-diamine]	1 to 10 µM
CC(C)N1CCC(Oc2ccc(Nc3ncc(F)c(N[C@@H]4C[C@H]5CCCN5C(C)(C)C4)n3)cc2OC(F)F)CC1 (single isomer, unassigned) [Compound 8, (R/S, S/R, R/R, S/S)-N^2-(4-(1-isopropylpiperidin-4-yloxy)-3-(difluoromethoxy)phenyl)-5-fluoro-N^4-(octahydro-5,5-dimethylindolizin-7-yl)pyrimidine-2,4-diamine]	0.5 to 1 µM
CC(C)N1CCC(Oc2ccc(Nc3ncc(F)c(N[C@H]4C[C@@H]5CCCN5C(C)(C)C4)n3)cc2OC(F)F)CC1 (single isomer, unassigned) [Compound 9, (R/S, S/R, R/R, S/S)-N^2-(4-(1-isopropylpiperidin-4-yloxy)-3-(difluoromethoxy)phenyl)-5-fluoro-N^4-(octahydro-5,5-dimethylindolizin-7-yl)pyrimidine-2,4-diamine]	0.1 to 0.5 µM
CC(C)N1CCC(Oc2ccc(Nc3ncc(F)c(N[C@@H]4C[C@@H]5CCCN5C(C)(C)C4)n3)cc2OC(F)F)CC1 (single isomer, unassigned) [Compound 10, (R/S, S/R, R/R, S/S)-N^2-(4-(1-isopropylpiperidin-4-yloxy)-3-(difluoromethoxy)phenyl)-5-fluoro-N^4-(octahydro-5,5-dimethylindolizin-7-yl)pyrimidine-2,4-diamine]	0.1 to 0.5 µM
COc1cc(Nc2ncc(F)c(N[C@H]3C[C@H]4CCCN4C(C)(C)C3)n2)cc(-n2nnnc2C)c1 (single isomer, unassigned) [Compound 11, (R/S, S/R, R/R, S/S)-5-fluoro-N4-(octahydro-5,5-dimethylindolizin-7-yl)N2-(3-methoxy-5-(5-methyl-1H-tetrazol-1-yl)phenyl)pyrimidine-2,4-diamine]	1 to 10 µM
COc1cc(Nc2ncc(F)c(N[C@@H]3C[C@H]4CCCN4C(C)(C)C3)n2)cc(-n2nnnc2C)c1 (single isomer, unassigned) [Compound 12, (R/S, S/R, R/R, S/S)-5-fluoro-N4-(octahydro-5,5-dimethylindolizin-7-yl)N2-(3-methoxy-5-(5-methyl-1H-tetrazol-1-yl)phenyl)pyrimidine-2,4-diamine]	0.5 to 1 µM
COc1cc(Nc2ncc(F)c(N[C@H]3C[C@@H]4CCCN4C(C)(C)C3)n2)cc(-n2nnnc2C)c1 (single isomer, unassigned) [Compound 13, (R/S, S/R, R/R, S/S)-5-fluoro-N4-(octahydro-5,5-dimethylindolizin-7-yl)N2-(3-methoxy-5-(5-methyl-1H-tetrazol-1-yl)phenyl)pyrimidine-2,4-diamine]	< 0.1 µM
COc1cc(Nc2ncc(F)c(N[C@@H]3C[C@@H]4CCCN4C(C)(C)C3)n2)cc(-n2nnnc2C)c1 (single isomer, unassigned) [Compound 14, (R/S, S/R, R/R, S/S)-5-fluoro-N4-(octahydro-5,5-dimethylindolizin-7-yl)N2-(3-methoxy-5-(5-methyl-1H-tetrazol-1-yl)phenyl)pyrimidine-2,4-diamine]	< 0.1 µM

Second part, the molecule after the results:

EC50	SMILES
1 to 10 µM	Cn1nnn(-c2cc(Nc3ncc(F)c(NC4CCN5C(CCC5(C)C)C4)n3)c(F)cc2C2CC2)c1=O (single isomer, unassigned) [Compound 35, 1-(5-(5-fluoro-4-(octahydro-3,3-dimethylindolizin-7-ylamino)pyrimidin-2-ylamino)-2-cyclopropyl-4-fluorophenyl)-4-methyl-1H-tetrazol-5(4H)-one]
1 to 10 µM	Cn1nnn(-c2cc(Nc3ncc(F)c(N[C@@H]4CCN5[C@@H](CCC5(C)C)C4)n3)c(F)cc2C2CC2)c1=O (single isomer, unassigned) [Compound 36]
1 to 10 µM	Cn1nnn(-c2cc(Nc3ncc(F)c(N[C@H]4CCN5[C@@H](CCC5(C)C)C4)n3)c(F)cc2C2CC2)c1=O (single isomer, unassigned) [Compound 37]
